Results from US20040171613A1, “Therapeutic agent for non-immediate type allergic diseases” (JAPAN TOBACCO INC., priority 2001, published 2004).
pIC50: −log10 of the molar value.

How the values were obtained:
human basophils = assay: leukotriene production from human basophils; format: cell-based; settings: anti-human IgE antibody stimulation; IL-3 preincubation
Procedure: To act them on cells, the solutions were further diluted to 10 μM to 0.01 μM (0.1% DMSO solution).
Using a syringe charged with 3.8% sodium citrate solution, 100 mL blood was obtained from human blood.
Using 10× HBSS (−) (10×Hank's balanced salt solution, GIBCO), Percoll (Amersham) and Milli Q water, 1.070 g/mL, 1.079 g/mL and 1.088 g/mL Percoll-HBSS (−) were prepared and layered, and the obtained blood was loaded on the layers and centrifuged at 300× g for 25 minutes. A cell fraction between the 1.070 g/mL Percoll-HBSS (−) layer and the 1.079 g/mL Percoll-HBSS (−) layer was recovered. 3 volumes of HBSS (−) was added to the recovered cell suspension and centrifuged at 300× g at 4° C. for 7 minutes. After centrifugation, the supernatant was discarded and the cells were rinsed once with HBSS (−). Thus recovered cell population was used as the basophils.
The basophils were prepared to 2.5×10^6 cells/mL with Tyrode solution, and 10 μg/mL recombinant human IL-3 (Genzyme/Techne) was added to a final concentration of 100 ng/mL. Immediately thereafter, 80 μL/well ([…]) of basophils were seeded on a round-bottom 96-well plate and were incubated in 5% CO2 at 37° C. for 30 minutes.
After preincubation, 10 μL/well of the above-described test compound was added and incubated in 5% CO2 at 37° C. for 10 minutes. […]

[1] = tested on: rat mast cell line RBL-2H3; assay: leukotriene production from rat mast cell line; format: cell-based; settings: anti-DNP IgE sensitization, DNP-BSA stimulation; 0.1 to 10 μM
Procedure: Then, the resulting solutions were diluted with E-MEM (EAGLE-MEM; Nikken Biomedical Lab.) to prepare solutions of 100 to 1 μM (1% DMSO solution). To act the solutions on cells, they were further diluted to 10 μM to 0.1 μM (0.1% DMSO solution).
1 mM PIPES (Dojin Molecular Technologies, Inc.), […], 0.5 mM KCl, 0.06 mM MgCl2, 0.1 mM CaCl2, 0.55 mM glucose and 0.1% BSA (bovine serum albumin; Sigma) were prepared with purified water and then adjusted to pH 7.4 using NaOH.
1 mg/mL anti-DNP IgE (monoclonal murine anti-DNP IgE; Yamasa Corp.) was diluted to 1000 fold with the PIPES buffer to prepare a 1 μg/mL solution.
10 mg/mL DNP-BSA was diluted to a concentration of 10 μg/mL with the PIPES buffer.
Culture medium: E-MEM containing heat-inactivated 10% FCS (fetal calf serum; Morgate Biotech), 100 units/mL penicillin and 100 μg/mL streptomycin (in the form of penicillin/streptomycin; GIBCO).
After centrifuging and washing rat mast cell line RBL-2H3 (Human Science; 1×10^6cells/mL/tube) with the above-described culture medium, the cells were resuspended in the culture medium and cultured in a 75-cm^2 flask (Falcon 353136) for 3 days. […]
30 minutes after the antigen stimulation, 20 μL/well supernatant was recovered and the LTs amount was measured according to manufacturer's protocol of LTs EIA kit (Amersham Pharmacia).

[2] = tested on: 2-AG-E-induced ear swelling; assay: effect of compound A on 2-AG-E-induced ear swelling; format: in vivo, mouse
Procedure: Therefore, 2-arachidonoylglycerol ether (2-AG-E), the stable form of an endogenous ligand candidate 2-arachidonoylglycerol, and a specific CB2 agonist HU-308 were examined whether they directly induce ear swelling and compared to the ear swelling induced by arachidonic acid (AA).
Synthetically produced 2-AG-E and HU-308 were prepared with acetone to 1 or 10% (w/v) and 10% (w/v), respectively, and AA (Sigma) was prepared with acetone to 1.25% (w/v), on needed basis. 10 μL each of these substances was applied on each side of the left ear.
One hour later, 10 μL each of 10% (w/v) 2-AG-E was applied on each side of the left ear.

[3] = tested on: IgE-dependent allergic dermatitis; settings: mouse, in vivo, po
Procedure: (§1) Using a triphase dermatitis model that can be induced by antigen in mouse passively sensitizationed with IgE, the actions of CB2 inverse agonist and CB2 agonist were examined.
(§2) *Animal: 8 to 10 weeks-old Female BALB/c mouse (Japan SLC Inc.) was used.
(§3) Preparation of solvent: MC was dissolved in distilled water to prepare an aqueous 0.5% MC solution.
(§4) Anti-DNP IgE (antibody against DNP; Yamasa Corp.) was prepared to 15 μg/mL with physiological saline. 0.2 mL of the resulting solution was given through the caudal vein to the mouse.
(§5) Antigen preparation: 0.15% (w/v) of DNFB (2,4-dinitrofluorobenzene) was prepared in a mixed solution of acetone and olive oil (3:1, v/v) on needed basis.
(§6) Antigen application: 25 μl of the antigen solution was applied on each side of both of the ears 24 hours after the administration of the anti-DNP IgE.
(§7) From the next day of the antigen application to day 8 after the antigen application, 10 mL/kg test compound was orally administered once a day 9 times in total. On the day of antigen application, the test compound was administered one hour before the antigen application and the test compound was administered one hour before the measurement of the thickness of the ear on day 8 after the antigen application.
(§8) Before and 8 days after the antigen application, the thickness of the ear was measured with a dial thickness gauge (Mitutoyo Corp.). The difference between the value measured before the antigen application and at each time point was used as an index of swelling.
(§9) After the measurement of ear swelling, spleen and thymus were harvested to weigh their wet weights.

CB1 = CB1 (Homo sapiens, UniProt P21554); settings: from JP-A 2000-256323, Table 33; cited from earlier work
Chain of CB1 (P21554 whole entry, species assumed): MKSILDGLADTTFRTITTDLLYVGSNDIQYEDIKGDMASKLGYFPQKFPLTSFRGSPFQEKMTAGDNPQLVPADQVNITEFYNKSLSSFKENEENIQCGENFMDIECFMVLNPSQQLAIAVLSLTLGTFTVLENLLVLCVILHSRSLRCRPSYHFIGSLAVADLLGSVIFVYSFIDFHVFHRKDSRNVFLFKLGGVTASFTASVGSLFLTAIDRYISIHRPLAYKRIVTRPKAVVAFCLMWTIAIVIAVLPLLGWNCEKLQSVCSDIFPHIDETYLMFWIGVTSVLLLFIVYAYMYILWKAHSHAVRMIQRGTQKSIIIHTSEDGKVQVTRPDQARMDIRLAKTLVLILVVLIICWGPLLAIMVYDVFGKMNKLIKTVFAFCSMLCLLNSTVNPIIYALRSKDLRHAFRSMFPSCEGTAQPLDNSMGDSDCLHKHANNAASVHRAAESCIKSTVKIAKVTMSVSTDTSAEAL

CB2 [4] = molecular target: T1, CB2 (Homo sapiens, UniProt P34972); design: host or cells: CHO cells expressing CB2; settings: cited from earlier work
Target sequence in this assay (P34972 whole entry, species assumed): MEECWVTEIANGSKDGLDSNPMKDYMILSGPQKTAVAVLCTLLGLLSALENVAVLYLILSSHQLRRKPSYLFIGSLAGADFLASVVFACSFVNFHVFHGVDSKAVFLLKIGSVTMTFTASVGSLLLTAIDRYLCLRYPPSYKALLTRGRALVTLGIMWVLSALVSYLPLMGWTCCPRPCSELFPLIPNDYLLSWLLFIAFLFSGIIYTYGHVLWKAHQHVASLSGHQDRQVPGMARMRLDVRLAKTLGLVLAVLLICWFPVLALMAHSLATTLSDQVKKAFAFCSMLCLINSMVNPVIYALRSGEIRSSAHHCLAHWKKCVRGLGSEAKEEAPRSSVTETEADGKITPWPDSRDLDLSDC

CB2 [5] = molecular target: T1, CB2; assay: cAMP production in forskolin-stimulated hCB2-expressing CHO cells; format: cell-based; design: expressed in transfected cells; host or cells: CHO cells
Target sequence in this assay (P34972 whole entry): as the sequence (P34972 whole entry, species assumed) above

[6] = tested on: IgE-dependent allergic dermatitis; settings: mouse, in vivo
Procedure: as §1, §2, §3, §4, §5, §6, §7, §8, §9

Structure (SMILES): CCCCCOc1c(OC)ccc2cc(C(=O)NCc3ccc4c(c3)OCO4)c(=O)[nH]c12 [Compound A, N-(benzo[1,3]dioxol-5-ylmethyl)-7-methoxy-2-oxo-8-pentyloxy-1,2-dihydroquinoline-3-carboxamide]
- production of leukotrienes (C4/D4/E4) (human basophils): suppressive action
- leukotriene production (C4/D4/E4) [1]: suppressive effect
- ear swelling induced by the application of 10% 2-AG-E (AUC day 0 to day 8) ([2]; oral 0.01, 0.1, 1, 10 mg/kg one hour before 2-AG-E, dose-dependent): suppressed ear swelling
- ear swelling induced by 10% 2-AG-E, significance ([2]; oral 1 or 10 mg/kg): significant effect
- wet weight of the spleen [3]: no apparent changes
- wet weight of the thymus [3]: no apparent changes
- pIC50 (CB1): 5.46
- forskolin-stimulated cAMP production (CB2 [4]): elevate the production of cyclic adenosine-phosphate (cAMP)
- effect on agonistic action of 2-AG-E (CB2 [5]): suppress the agonistic action of 2-AG-E
- cAMP production relative to control at 0.1 µM (CB2 [5]; CHO, read-out: Amount of cAMP production compared to control (ratio (%))): 430%
- ear swelling, very late phase [6]: significantly suppressed ear swelling
